Our source for the T/C values is PubChem BioAssay AID212 (DTP/NCI, 2004).

The assay deals with BDF1 mice, colon carcinoma 38 sc, T/C %. Briefly: NCI In Vivo Anticancer Drug Screen. Data for tumor model Colon Carcinoma 38 (subcutaneous) in B6D2F1 (BDF1) mice. The conditions noted are these: endpoint: median tumor weight (est.), higher = larger tumour. The method in brief:
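Compound antitumor activity was assessed in mice carrying transplantable tumors. Survival or tumor size was recorded, and each value is the treated-group measurement divided by that of the vehicle-treated control group.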

The mark [1] stands for this setting: dose: 16.0 mg/kg/injection, schedule: Q07DX002 (ip), vehicle: saline.
The mark [2] stands for this setting: dose: 1600.0 mg/kg/injection, schedule: Q07DX002 (ip), vehicle: saline.
The mark [3] stands for this setting: dose: 25.0 mg/kg/injection, schedule: Q07DX002 (ip), vehicle: Klucel (hydroxypropylcellulose) (HPC).

SMILES strings stand for the structures. “And” between values parts separate entries of the source, which are not always exact repeats. Identical values can stand only once. Inconclusive results are not listed.

In the case of `Nc1ncnc2c1ncn2C1OC(CO)CC1O` (stereo unspecified), the T/C is 110 % of control (dose: 75.0 mg/kg/injection, schedule: Q07DX002 (ip), vehicle: Klucel (hydroxypropylcellulose) (HPC)); 88 % of control (dose: 150.0 mg/kg/injection, schedule: Q07DX002 (ip), vehicle: Klucel (hydroxypropylcellulose) (HPC)); 54 % of control (dose: 300.0 mg/kg/injection, schedule: Q07DX002 (ip), vehicle: Klucel (hydroxypropylcellulose) (HPC)).
In the case of `C(=N/NC1=NCCN1)/c1c2ccccc2c(/C=N\NC2=NCCN2)c2ccccc12`, the T/C (dose: 5.0 mg/kg/injection, schedule: Q07DX002 (ip), vehicle: suspension in saline) was 100 % of control; the T/C (dose: 10.0 mg/kg/injection, schedule: Q07DX002 (ip), vehicle: suspension in saline) was 109 % of control; the T/C (dose: 20.0 mg/kg/injection, schedule: Q07DX002 (ip), vehicle: suspension in saline) was 110 % of control; the T/C (dose: 40.0 mg/kg/injection, schedule: Q07DX002 (ip), vehicle: suspension in saline) is 70 % of control.
As to `C[C@@H]1C[C@@H]([C@H](O)CC2CC(=O)NC(=O)C2)C(=O)[C@@H](C)C1`, the T/C is 162 % of control (dose: 50.0 mg/kg/injection, schedule: Q07DX002 (ip), vehicle: saline with Tween-80); 90 % of control (dose: 100.0 mg/kg/injection, schedule: Q07DX002 (ip), vehicle: saline with Tween-80); 60 % of control (dose: 200.0 mg/kg/injection, schedule: Q07DX002 (ip), vehicle: saline with Tween-80).
Regarding `CO[C@@]12[C@@H]3N[C@@H]3CN1C1=C(C(=O)C(NCC3CCCO3)=C(C)C1=O)[C@@H]2COC(N)=O` (stereo partly specified), the T/C was 93 % of control (dose: 3.0 mg/kg/injection, schedule: Q07DX002 (ip), vehicle: distilled water + Tween-80); 69 % of control (dose: 6.0 mg/kg/injection, schedule: Q07DX002 (ip), vehicle: distilled water + Tween-80); 34 % of control (dose: 12.0 mg/kg/injection, schedule: Q07DX002 (ip), vehicle: distilled water + Tween-80); 28 % of control (dose: 24.0 mg/kg/injection, schedule: Q07DX002 (ip), vehicle: distilled water + Tween-80).
Consider `O=NN(CCCl)C(=O)NC1OC(CO)C(O)C(O)C1O` (stereo unspecified), for which the T/C was 114 % of control and 96 % of control (dose: 2.5 mg/kg/injection, schedule: Q07DX002 (ip), vehicle: saline); 88 % of control and 92 % of control (dose: 8.0 mg/kg/injection, schedule: Q07DX002 (ip), vehicle: saline); 34 % of control and 58 % of control under setting [1].
Consider `CN(C)CCN1C(=O)c2cccc3cc(N)cc(c23)C1=O`, for which the T/C (dose: 2.0 mg/kg/injection, schedule: Q07DX002 (ip), vehicle: saline with Tween-80) is 111 % of control; the T/C (dose: 4.0 mg/kg/injection, schedule: Q07DX002 (ip), vehicle: saline with Tween-80) is 97 % of control; the T/C (dose: 8.0 mg/kg/injection, schedule: Q07DX002 (ip), vehicle: saline with Tween-80) is 87 % of control and 88 % of control; the T/C (dose: 16.0 mg/kg/injection, schedule: Q07DX002 (ip), vehicle: saline with Tween-80) was 100 % of control; the T/C (dose: 64.0 mg/kg/injection, schedule: Q07DX002 (ip), vehicle: saline with Tween-80) was 55 % of control and 58 % of control.
For the compound `c1ccc2c(NCCCCCCCCNc3c4ccccc4nc4ccccc34)c3ccccc3nc2c1`, the T/C is 109 % of control and 101 % of control (dose: 5.0 mg/kg/injection, schedule: Q07DX002 (ip), vehicle: Klucel (hydroxypropylcellulose) (HPC)); 78 % of control and 93 % of control (dose: 10.0 mg/kg/injection, schedule: Q07DX002 (ip), vehicle: Klucel (hydroxypropylcellulose) (HPC)); 75 % of control and 77 % of control (dose: 20.0 mg/kg/injection, schedule: Q07DX002 (ip), vehicle: Klucel (hydroxypropylcellulose) (HPC)); 72 % of control and 87 % of control (dose: 40.0 mg/kg/injection, schedule: Q07DX002 (ip), vehicle: Klucel (hydroxypropylcellulose) (HPC)); 79 % of control and 100 % of control (dose: 80.0 mg/kg/injection, schedule: Q07DX002 (ip), vehicle: Klucel (hydroxypropylcellulose) (HPC)).
Take `OCC1OC(n2cnc3c(Cl)ncnc32)C(O)C1O` (stereo unspecified): the T/C under setting [2] was 82 % of control.
On to `CC12CC(C(=O)O)C3(O)CC(C)(C1)CC(C)(C2)C3` (stereo unspecified) (tested in a mixture with another compound), for which the T/C (dose: 12.5 mg/kg/injection, schedule: Q07DX003 (ip), vehicle: Klucel (hydroxypropylcellulose) (HPC)) is 70 % of control; the T/C (dose: 25.0 mg/kg/injection, schedule: Q07DX003 (ip), vehicle: Klucel (hydroxypropylcellulose) (HPC)) is 94 % of control; the T/C (dose: 50.0 mg/kg/injection, schedule: Q07DX003 (ip), vehicle: Klucel (hydroxypropylcellulose) (HPC)) was 93 % of control; the T/C (dose: 100.0 mg/kg/injection, schedule: Q07DX003 (ip), vehicle: Klucel (hydroxypropylcellulose) (HPC)) is 121 % of control; the T/C (dose: 200.0 mg/kg/injection, schedule: Q07DX003 (ip), vehicle: Klucel (hydroxypropylcellulose) (HPC)) was 84 % of control.
Consider `CCCCCC[C@@H](O)C/C=C\CCCCCCCC(=O)OCCO`, for which the T/C was 113 % of control (dose: 50.0 mg/kg/injection, schedule: Q07DX002 (ip), vehicle: saline); 72 % of control (dose: 100.0 mg/kg/injection, schedule: Q07DX002 (ip), vehicle: saline); 113 % of control (dose: 200.0 mg/kg/injection, schedule: Q07DX002 (ip), vehicle: saline); 117 % of control (dose: 400.0 mg/kg/injection, schedule: Q07DX002 (ip), vehicle: saline); 74 % of control (dose: 800.0 mg/kg/injection, schedule: Q07DX002 (ip), vehicle: saline); 85 % of control under setting [2].
For `N[C@@H](Cc1ccc(N(CCCl)CCCl)cc1)C(=O)O`, the T/C was 81 % of control (dose: 2.0 mg/kg/injection, schedule: Q07DX002 (ip), vehicle: Klucel (hydroxypropylcellulose) (HPC)); 106 % of control (dose: 2.0 mg/kg/injection, schedule: Q07DX003 (ip), vehicle: saline); 51 % of control (dose: 2.5 mg/kg/injection, schedule: Q07DX003 (ip), vehicle: saline with Tween-80); 54 % of control and 61 % of control (dose: 3.75 mg/kg/injection, schedule: Q07DX002 (ip), vehicle: Klucel (hydroxypropylcellulose) (HPC)); 107 % of control (dose: 4.0 mg/kg/injection, schedule: Q07DX002 (ip), vehicle: Klucel (hydroxypropylcellulose) (HPC)); 44 % of control (dose: 5.0 mg/kg/injection, schedule: Q07DX003 (ip), vehicle: saline with Tween-80). The T/C is 33 % of control and 37 % of control (dose: 7.5 mg/kg/injection, schedule: Q07DX002 (ip), vehicle: Klucel (hydroxypropylcellulose) (HPC)); 16 % of control (dose: 15.0 mg/kg/injection, schedule: Q07DX002 (ip), vehicle: Klucel (hydroxypropylcellulose) (HPC)); 8 % of control (2×) and 11 % of control under setting [1].
Regarding `Cc1cc(N(CC(C)Br)CC(C)Br)ccc1N=Nc1ccccc1C(=O)O` (stereo unspecified), the T/C (dose: 1.56 mg/kg/injection, schedule: Q07DX002 (ip), vehicle: saline with Tween-80) is 87 % of control and 96 % of control; the T/C (dose: 6.25 mg/kg/injection, schedule: Q07DX002 (ip), vehicle: saline with Tween-80) was 85 % of control; the T/C (dose: 12.5 mg/kg/injection, schedule: Q07DX002 (ip), vehicle: saline with Tween-80) is 95 % of control and 102 % of control; the T/C (dose: 25.0 mg/kg/injection, schedule: Q07DX002 (ip), vehicle: saline with Tween-80) is 73 % of control and 86 % of control.
Turning to `CC1(C)CC(=O)C(CSC(=O)c2ccccc2)C(=O)C1`, the T/C is, setting by setting: (dose: 12.5 mg/kg/injection, schedule: Q07DX002 (ip), vehicle: Klucel (hydroxypropylcellulose) (HPC)) 120 % of control and 104 % of control; under setting [3], 113 % of control and 104 % of control; (dose: 100.0 mg/kg/injection, schedule: Q07DX002 (ip), vehicle: Klucel (hydroxypropylcellulose) (HPC)) 88 % of control.
In the case of `O=CC(S)CO` (stereo unspecified), the T/C (dose: 12.5 mg/kg/injection, schedule: Q07DX002 (ip), vehicle: suspension in saline) was 76 % of control; the T/C (dose: 25.0 mg/kg/injection, schedule: Q07DX002 (ip), vehicle: suspension in saline) was 95 % of control; the T/C (dose: 50.0 mg/kg/injection, schedule: Q07DX002 (ip), vehicle: suspension in saline) is 113 % of control; the T/C (dose: 200.0 mg/kg/injection, schedule: Q07DX002 (ip), vehicle: suspension in saline) is 97 % of control.
For `CCC[CH2][Sn]1([CH2]CCC)[O]C2C(CO)OC(n3ccc(N)nc3=O)C2[O]1` (stereo unspecified), the T/C reads like this: (dose: 1.56 mg/kg/injection, schedule: Q07DX002 (ip), vehicle: Klucel (hydroxypropylcellulose) (HPC)) 61 % of control and 72 % of control; under setting [3], 91 % of control.
